The text below walks through data of patent US10633419B2, “Immunomodulators” (BRISTOL-MYERS SQUIBB COMPANY, priority 2014, dated 2020).

Positions of bridges follow the written chain, without caps; N, C: chain ends. Non-standard residues stand in square brackets, D forms with d. Residues, ends and D or L forms follow the SMILES beside them. *: point of attachment. X28 = O=C(O)CCCCCCCCCCNC(=O)CCC(=O)NCCCOCCOCCOCCCNC(=O)CCC(=O)NCCCOCCOCCOCCCN*; Ala(1-CH2COOH-inden-3-yl) = N[C@@H](CC1=CC(CC(=O)O)c2ccccc21)C(=O)O; X15 = O=C(O)CCCCCCCCCCNC(=O)CCCCCCCCCCNC(=O)CCC(=O)NCCCOCCOCCOCCCN*; Trp(1-CH2COOH) = N[C@@H](Cc1cn(CC(=O)O)c2ccccc12)C(=O)O; X14 = O=C(O)CCCCCCCCCCNC(=O)CCC(=O)NCCCOCCOCCOCCCN*; Hyp = O=C(O)[C@@H]1C[C@@H](O)CN1; NMeNle = CCCC[C@H](NC)C(=O)O; AEEEA = NCCOCCOCCOCC(=O)O; NMeA = CN[C@@H](C)C(=O)O; Aun = NCCCCCCCCCCC(=O)O; Dab = NCC[C@H](N)C(=O)O; Dap = NC[C@H](N)C(=O)O

The target of the first test is T1, PD-L1 (Homo sapiens, UniProt Q9NZQ7).
T1 construct: hPDL1(19-239)-TVMV-His; made in house; host or cells: HEK293T
T1 sequence (Q9NZQ7 with tags, fused parts or gaps): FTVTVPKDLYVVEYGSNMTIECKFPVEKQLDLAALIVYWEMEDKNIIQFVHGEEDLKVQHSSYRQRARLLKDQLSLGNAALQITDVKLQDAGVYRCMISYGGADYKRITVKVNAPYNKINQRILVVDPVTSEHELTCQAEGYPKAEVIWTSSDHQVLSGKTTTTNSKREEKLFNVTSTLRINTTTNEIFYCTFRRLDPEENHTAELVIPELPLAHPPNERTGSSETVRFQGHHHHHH
The experiment in a line: PD-1/PD-L1 Homogenous Time-Resolved Fluorescence (HTRF) binding assay (PD-1-Ig/PD-L1-His). The settings on record: inhibition of PD-1-Ig binding to PD-L1-TVMV-His; value given as number; read-out: HTRF IC50. An outline of the steps:
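HTRF competition in dPBS with 0.1% BSA and 0.05% Tween-20: 20 nM PD-1-Ig added after 15 min compound pre-incubation with 10 nM PD-L1-His, then another 15 min. Signal (665/620 nm) after 30 min with APC anti-His (20 nM) and Eu anti-Ig (1 nM).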
Background: Time-resolved FRET reads energy transfer from a long-lived donor to a nearby acceptor.
One may read the IC50 as the point on the concentration scale where inhibition reaches its midpoint. In the case of `CCCC[C@H]1C(=O)N(C)[C@@H](CCCC)C(=O)N[C@@H](CCC(=O)O)C(=O)N[C@H](C(=O)NCCCOCCOCCOCCCNC(=O)CCC(=O)NCCCCCCCCCCC(=O)O)CSCC(=O)N[C@@H](Cc2ccc(O)cc2)C(=O)N(C)[C@@H](C)C(=O)N[C@@H](CC(N)=O)C(=O)N2CCC[C@H]2C(=O)N[C@@H](Cc2cnc[nH]2)C(=O)N[C@@H](CCCCN)C(=O)N2C[C@H](O)C[C@H]2C(=O)N[C@@H](Cc2c[nH]c3ccccc23)C(=O)N[C@@H](CO)C(=O)N[C@@H](Cc2cn(CC(=O)O)c3ccccc23)C(=O)N1C` [Example 11080] ({CH2CO}-Y[NMeA]NPHK[Hyp]WS[Trp(1-CH2COOH)][NMeNle][NMeNle]EC-X14; thioether N-14), the IC50 turned out to be 12.7 nM. Consider `CCCC[C@H]1C(=O)N(C)[C@@H](CCCC)C(=O)N[C@@H](CC(C)C)C(=O)N[C@H](C(=O)NCCCOCCOCCOCCCNC(=O)CCC(=O)NCCCCCCCCCCC(=O)O)CSCC(=O)N[C@@H](Cc2ccc(O)cc2)C(=O)N(C)[C@@H](C)C(=O)N[C@@H](CC(N)=O)C(=O)N2CCC[C@H]2C(=O)N[C@@H](CN)C(=O)N[C@@H](CCC(N)=O)C(=O)N2C[C@H](O)C[C@H]2C(=O)N[C@@H](Cc2c[nH]c3ccccc23)C(=O)N[C@@H](CO)C(=O)N[C@@H](Cc2cn(CC(=O)O)c3ccccc23)C(=O)N1C` [Example 11086] ({CH2CO}-Y[NMeA]NP[Dap]Q[Hyp]WS[Trp(1-CH2COOH)][NMeNle][NMeNle]LC-X14; thioether N-14), for which the IC50 is 19 nM.

The test is the same for the next values; noted with them: inhibition of PD-1-Ig binding to PD-L1-TVMV-His; value given as range class; read-out: HTRF IC50.
In the case of `CCCC[C@H]1C(=O)N(C)[C@@H](CCCC)C(=O)N[C@@H](CC(C)C)C(=O)N[C@H](C(=O)NCC(=O)NCC(=O)NCCCCCCCCCCC(=O)O)CSCC(=O)N[C@@H](Cc2ccc(O)cc2)C(=O)N(C)[C@@H](C)C(=O)N[C@@H](CC(N)=O)C(=O)N2CCC[C@H]2C(=O)N[C@@H](Cc2cnc[nH]2)C(=O)N[C@@H](CCC(=O)O)C(=O)N2C[C@H](O)C[C@H]2C(=O)N[C@@H](Cc2c[nH]c3ccccc23)C(=O)N[C@@H](CCN)C(=O)N[C@@H](CC2=CC(CC(=O)O)c3ccccc32)C(=O)N1C` (stereo partly shown) [Example 11078] ({CH2CO}-Y[NMeA]NPHE[Hyp]W[Dab][Ala(1-CH2COOH-inden-3-yl)][NMeNle][NMeNle]LCGG[Aun]-OH; thioether N-14), the IC50 lay within 0.3 to 9.9 nM. Still for that read-out and setting: the value for `CCCC[C@H]1C(=O)N(C)[C@@H](CCCC)C(=O)N[C@@H](CC(C)C)C(=O)N[C@H](C(=O)NCC(=O)NCC(=O)NCC(=O)NCCCCCCCCCCC(=O)O)CSCC(=O)N[C@@H](Cc2ccc(O)cc2)C(=O)N(C)[C@@H](C)C(=O)N[C@@H](CC(N)=O)C(=O)N2CCC[C@H]2C(=O)N[C@@H](Cc2cnc[nH]2)C(=O)N[C@@H](CCC(=O)O)C(=O)N2C[C@H](O)C[C@H]2C(=O)N[C@@H](Cc2c[nH]c3ccccc23)C(=O)N[C@@H](CCN)C(=O)N[C@@H](Cc2cn(CC(=O)O)c3ccccc23)C(=O)N1C` [Example 11079] ({CH2CO}-Y[NMeA]NPHE[Hyp]W[Dab][Trp(1-CH2COOH)][NMeNle][NMeNle]LCGGG[Aun]-OH; thioether N-14) was 10 to 99 nM; that for `CCCC[C@H]1C(=O)N(C)[C@@H](CCCC)C(=O)N[C@@H](CC(C)C)C(=O)N[C@H](C(=O)NCCCCCCCCCCC(=O)O)CSCC(=O)N[C@@H](Cc2ccc(O)cc2)C(=O)N(C)[C@@H](C)C(=O)N[C@@H](CC(N)=O)C(=O)N2CCC[C@H]2C(=O)N[C@@H](CO)C(=O)N[C@@H](CCC(N)=O)C(=O)N2C[C@H](O)C[C@H]2C(=O)N[C@@H](Cc2c[nH]c3ccccc23)C(=O)N[C@@H](CO)C(=O)N[C@@H](Cc2cn(CC(=O)O)c3ccccc23)C(=O)N1C` [Example 11082] ({CH2CO}-Y[NMeA]NPSQ[Hyp]WS[Trp(1-CH2COOH)][NMeNle][NMeNle]LC[Aun]-OH; thioether N-14) was 10 to 99 nM; that for `CCCC[C@H]1C(=O)N(C)[C@@H](CCCC)C(=O)N[C@@H](CC(C)C)C(=O)N[C@H](C(=O)NCCCOCCOCCOCCCNC(=O)CCC(=O)NCCCCCCCCCCC(=O)O)CSCC(=O)N[C@@H](Cc2ccc(O)cc2)C(=O)N(C)[C@@H](C)C(=O)N[C@@H](CC(N)=O)C(=O)N2CCC[C@H]2C(=O)N[C@@H](CO)C(=O)N[C@@H](CCC(N)=O)C(=O)N2C[C@H](O)C[C@H]2C(=O)N[C@@H](Cc2c[nH]c3ccccc23)C(=O)N[C@@H](CO)C(=O)N[C@@H](Cc2cn(CC(=O)O)c3ccccc23)C(=O)N1C` [Example 11083] ({CH2CO}-Y[NMeA]NPSQ[Hyp]WS[Trp(1-CH2COOH)][NMeNle][NMeNle]LC-X14; thioether N-14) was 10 to 99 nM. Regarding `CCCC[C@H]1C(=O)N(C)[C@@H](CCCC)C(=O)N[C@@H](CC(C)C)C(=O)N[C@H](C(=O)NCC(=O)NCCCCCCCCCCC(=O)O)CSCC(=O)N[C@@H](Cc2ccc(O)cc2)C(=O)N(C)[C@@H](C)C(=O)N[C@@H](CC(N)=O)C(=O)N2CCC[C@H]2C(=O)N[C@@H](CO)C(=O)N[C@@H](CCC(N)=O)C(=O)N2C[C@H](O)C[C@H]2C(=O)N[C@@H](Cc2c[nH]c3ccccc23)C(=O)N[C@@H](CO)C(=O)N[C@@H](Cc2cn(CC(=O)O)c3ccccc23)C(=O)N1C` [Example 11084] ({CH2CO}-Y[NMeA]NPSQ[Hyp]WS[Trp(1-CH2COOH)][NMeNle][NMeNle]LCG[Aun]-OH; thioether N-14), the IC50 was 10 to 99 nM. On the same count and under the same terms, the value for `CCCC[C@H]1C(=O)N(C)[C@@H](CCCC)C(=O)N[C@@H](CC(C)C)C(=O)N[C@H](C(=O)NCCOCCOCCOCC(=O)NCCCCCCCCCCC(=O)O)CSCC(=O)N[C@@H](Cc2ccc(O)cc2)C(=O)N(C)[C@@H](C)C(=O)N[C@@H](CC(N)=O)C(=O)N2CCC[C@H]2C(=O)N[C@@H](CO)C(=O)N[C@@H](CCC(N)=O)C(=O)N2C[C@H](O)C[C@H]2C(=O)N[C@@H](Cc2c[nH]c3ccccc23)C(=O)N[C@@H](CO)C(=O)N[C@@H](Cc2cn(CC(=O)O)c3ccccc23)C(=O)N1C` [Example 11085] ({CH2CO}-Y[NMeA]NPSQ[Hyp]WS[Trp(1-CH2COOH)][NMeNle][NMeNle]LC[AEEEA][Aun]-OH; thioether N-14) was 10 to 99 nM; that for `CCCC[C@H]1C(=O)N(C)[C@@H](CCCC)C(=O)N[C@@H](CC(C)C)C(=O)N[C@H](C(=O)NCCCOCCOCCOCCCNC(=O)CCC(=O)NCCCCCCCCCCC(=O)NCCCCCCCCCCC(=O)O)CSCC(=O)N[C@@H](Cc2ccc(O)cc2)C(=O)N(C)[C@@H](C)C(=O)N[C@@H](CC(N)=O)C(=O)N2CCC[C@H]2C(=O)N[C@@H](CN)C(=O)N[C@@H](CCC(N)=O)C(=O)N2C[C@H](O)C[C@H]2C(=O)N[C@@H](Cc2c[nH]c3ccccc23)C(=O)N[C@@H](CO)C(=O)N[C@@H](Cc2cn(CC(=O)O)c3ccccc23)C(=O)N1C` [Example 11087] ({CH2CO}-Y[NMeA]NP[Dap]Q[Hyp]WS[Trp(1-CH2COOH)][NMeNle][NMeNle]LC-X15; thioether N-14) was 10 to 99 nM. For the molecule `CCCC[C@H]1C(=O)N(C)[C@@H](CCCC)C(=O)N[C@@H](CC(C)C)C(=O)N[C@H](C(=O)NCCCOCCOCCOCCCNC(=O)CCC(=O)NCCCOCCOCCOCCCNC(=O)CCC(=O)NCCCCCCCCCCC(=O)O)CSCC(=O)N[C@@H](Cc2ccc(O)cc2)C(=O)N(C)[C@@H](C)C(=O)N[C@@H](CC(N)=O)C(=O)N2CCC[C@H]2C(=O)N[C@@H](CN)C(=O)N[C@@H](CCC(N)=O)C(=O)N2C[C@H](O)C[C@H]2C(=O)N[C@@H](Cc2c[nH]c3ccccc23)C(=O)N[C@@H](CO)C(=O)N[C@@H](Cc2cn(CC(=O)O)c3ccccc23)C(=O)N1C` [Example 11088] ({CH2CO}-Y[NMeA]NP[Dap]Q[Hyp]WS[Trp(1-CH2COOH)][NMeNle][NMeNle]LC-X28; thioether N-14), the IC50 was in the range of 100 to 1600 nM. On to `CCCC[C@H]1C(=O)N(C)[C@@H](CCCC)C(=O)N[C@@H](CC(C)C)C(=O)N[C@H](C(=O)NCCCCCCCCCCC(=O)NCCCCCCCCCCC(=O)O)CSCC(=O)N[C@@H](Cc2ccc(O)cc2)C(=O)N(C)[C@@H](C)C(=O)N[C@@H](CC(N)=O)C(=O)N2CCC[C@H]2C(=O)N[C@@H](CN)C(=O)N[C@@H](CCC(N)=O)C(=O)N2C[C@H](O)C[C@H]2C(=O)N[C@@H](Cc2c[nH]c3ccccc23)C(=O)N[C@@H](CO)C(=O)N[C@@H](Cc2cn(CC(=O)O)c3ccccc23)C(=O)N1C` [Example 11089] ({CH2CO}-Y[NMeA]NP[Dap]Q[Hyp]WS[Trp(1-CH2COOH)][NMeNle][NMeNle]LC[Aun][Aun]-OH; thioether N-14), for which the IC50 was 10 to 99 nM.

As to `CCCC[C@H]1C(=O)N(C)[C@@H](CCCC)C(=O)N[C@@H](CC(C)C)C(=O)N[C@H](C(=O)NCCCCCCCCCCC(=O)NCCCCCCCCCCC(=O)NCCCCCCCCCCC(=O)O)CSCC(=O)N[C@@H](Cc2ccc(O)cc2)C(=O)N(C)[C@@H](C)C(=O)N[C@@H](CC(N)=O)C(=O)N2CCC[C@H]2C(=O)N[C@@H](CN)C(=O)N[C@@H](CCC(N)=O)C(=O)N2C[C@H](O)C[C@H]2C(=O)N[C@@H](Cc2c[nH]c3ccccc23)C(=O)N[C@@H](CO)C(=O)N[C@@H](Cc2cn(CC(=O)O)c3ccccc23)C(=O)N1C` [Example 11090] ({CH2CO}-Y[NMeA]NP[Dap]Q[Hyp]WS[Trp(1-CH2COOH)][NMeNle][NMeNle]LC[Aun][Aun][Aun]-OH; thioether N-14), the IC50 lay within 10 to 99 nM. Regarding `CCCC[C@H]1C(=O)N(C)[C@@H](CCCC)C(=O)N[C@@H](CC(C)C)C(=O)N[C@H](C(=O)NCC(=O)NCC(=O)NCC(=O)NCCCCCCCCCCC(=O)O)CSCC(=O)N[C@@H](Cc2ccc(O)cc2)C(=O)N(C)[C@@H](C)C(=O)N[C@@H](CC(N)=O)C(=O)N2CCC[C@H]2C(=O)N[C@@H](CN)C(=O)N[C@@H](CC(C)C)C(=O)N2C[C@H](O)C[C@H]2C(=O)N[C@@H](Cc2c[nH]c3ccccc23)C(=O)N[C@@H](CCN)C(=O)N[C@@H](Cc2cn(CC(=O)O)c3ccccc23)C(=O)N1C` [Example 11091] ({CH2CO}-Y[NMeA]NP[Dap]L[Hyp]W[Dab][Trp(1-CH2COOH)][NMeNle][NMeNle]LCGGG[Aun]-OH; thioether N-14), the IC50 is 0.3 to 9.9 nM.
